The values below come from patent publication US9920014B2, “Selective inhibition of bacterial topoisomerase I” (THE FLORIDA INTERNATIONAL BOARD OF TRUSTEES MODESTO A. …, priority 2013, dated 2018).

The test system of one data set is Escherichia coli K12. Briefly: MIC by microbroth dilution, E. coli K12. The class given is cell-based. The conditions noted are these: for MIC: Escherichia coli, K12, 24 h 37° C., read-out: MIC S5 = E. coli K 12; for MIC S5 = E. coli K 12: 24 h 37° C. Here is the method:
(§1) Minimum Inhibitory Concentration (MIC) Determination:
(§2) Bacteria used in this study were Staphylococcus aureus ATCC 29213, Escherichia coli ATCC 25922, Escherichia coli K12, Staphylococcus aureus ATCC 33591, Pseudomonas aeruginosa ATCC 27853, and Enterococcus faecalis ATCC 29212. All compounds were tested by the microbroth dilution method following Clinical and Laboratory Standards Institute guidelines. Briefly, Mueller-Hinton broth (Difco Laboratories, Becton Dickinson) was inoculated with each organism and incubated at 37° C. with shaking to establish logarithmic growth. Following incubation, each culture was pelleted by centrifugation (3,500×g for 5 min) and resuspended in 0.85% sterile saline solution to an optical density at 625 nm of 0.1. Samples were tested in triplicate using 96 well microplates (Corning Costar Corp. Cambridge, Mass.), yielding final bacterial concentrations of 5×10^5 CFU/mL, and incubated for 24 h at 37° C. Following incubation, optical densities of each well were determined with a μQuant microplate spectrophotometer (BioTek Instruments, Inc., Winooski, Vt.) at 625 nm.

Data set [1] deals with Staphylococcus aureus ATCC 29213. Nature of the data set: MIC by microbroth dilution, S. aureus 29213. Type of data set: cell-based. As to conditions: for MIC: Staphylococcus aureus, ATCC29213, 24 h 37° C., read-out: MIC S1 = S. aureus 29213; for MIC S1 = S. aureus 29213: 24 h 37° C. How it is done:
as §1, §2

The subject of data set [2] is Enterococcus faecalis ATCC 29212. Briefly: MIC by microbroth dilution, E. faecalis 29212. The conditions noted are these: for MIC: Enterococcus faecalis, ATCC29212, read-out: MIC S6 = E. faecalis 29212; for MIC / MIC S6 = E. faecalis 29212: microbroth dilution, 24 h 37° C.; for activity against E. faecalis 29212 (in words): comment on Table 4. The class given is cell-based. How it is done: as §1, §2

For data set [3], the system named is Staphylococcus aureus ATCC 33591. Nature of the data set: MIC by microbroth dilution, S. aureus 33591. The class given is cell-based. As to conditions: for MIC: Staphylococcus aureus, ATCC33591, 24 h 37° C., read-out: MIC S2 = S. aureus 33591; for MIC S2 = S. aureus 33591: 24 h 37° C. How it is done: as §1, §2
Data set [4] relates to Escherichia coli ATCC 25922. Briefly: MIC by microbroth dilution, E. coli 25922. As to conditions: for MIC: Escherichia coli, ATCC25922, 24 h 37° C., read-out: MIC S3 = E. coli 25922; for MIC S3 = E. coli 25922: 24 h 37° C. Type of data set: cell-based. Here is the method:
as §1, §2

The subject of another data set is DU 145 cell line. Nature of the data set: Cytotoxicity, sulforhodamine B assay. As to conditions: for IC50: 48 h treatment, SRB stain, read-out: IC50 against DU-145. Type of data set: cell-based. How it is done: Cytotoxicity Experiments:
The DU 145 cell line was cultured according to ATCC protocols. Cells were harvested using trypsin-EDTA solution and counted using trypan blue exclusion. Cells were seeded at a volume of 100 μl/well in the wells of tissue culture treated 96 well plates at a density of […] per well. Seeded 96 well plates were returned to incubator (37° C., 5% CO2) for twenty-four hours to resume exponential growth.
Cell lines were then treated with 100 μl of each test compound or cisplatin in triplicate. The final concentrations of each treatment were: 20, 10, 5, 2.5, 1.25, 0.625 and 0.0625 μM. Each plate also contained wells containing untreated cells and media only as controls. After receiving treatments, the 96 well plates were returned to incubator (37° C., 5% CO2) for forty-eight hours.
After forty-eight hours of treatment, the treated plates were fixed with trichloroacetic acid and stained with sulforhodamine B using a modified version of the protocol described by Skehan et al. In short, 50 μl of cold 80% TCA was added to each well, at a final concentration of 16% TCA, and plates were incubated at 4° C. for one hour. The media and TCA solution was discarded and plates were washed four times using room temperature tap water. Plates were allowed to air dry overnight. Plates were stained with the addition of 70 μl/well of […] SRB in 1% (v/v) acetic acid solution. Samples were stained for fifteen minutes and then stain was discarded. Plates were then washed four times with 1% (v/v) acetic acid solution to remove unbound stain and allowed to air dry overnight at room temperature. Finally, SRB stain was solubilized by adding 150 μl of 10 mM unbuffered Tris base to each well. The absorbance of each samples at 560 nm was recorded using a Tecan plate reader and the IC50 was determined using Origin 4.0 software. Each study was completed in duplicate.

Data set [5] has as its system Pseudomonas aeruginosa ATCC 27853. Nature of the data set: MIC by microbroth dilution, P. aeruginosa 27853. Type of data set: cell-based. As to conditions: for MIC: Pseudomonas aeruginosa, ATCC27853, 24 h 37° C., read-out: MIC S4 = P. aeruginosa 27853; for MIC S4 = P. aeruginosa 27853: 24 h 37° C. How it is done:
as §1, §2

Data set [6] concerns the target human DNA topoisomerase II (Homo sapiens, UniProt P11388). Briefly: Inhibition assay against human DNA topoisomerase II (plasmid relaxation, agarose gel). Type of data set: biochemical. As to conditions: for inhibition of human DNA topoisomerase II activities at 50 μM: 50 μM compound; for IC50: 4 units enzyme, supercoiled pBAD-GFPuv, 30 min 37° C., read-out: IC50 hTopo II. How it is done:
Inhibition Assays Against Human DNA Topoisomerase II:
The reaction mixture (25 μl) contained 20 mM Tris-HCl at pH 7.9, 50 mM KAc, 10 mM Mg(Ac)2, 1 mM DTT, 1 μg/mL BSA, 200 ng supercoiled plasmid pBAD-GFPuv, 4 units of Human topoisomerase II, and one of the compounds at a final concentration that ranges from 5 to 50 μM. All components were assembled on ice and incubated for 30 minutes at 37° C. After the incubation, the reactions were terminated by extraction with an equal volume of phenol. The topological state of the DNA samples was analyzed with 1% agarose gel electrophoresis in 1×TAE buffer, pH 7.8. Following electrophoresis, the agarose gel was stained with Ethidium Bromide, destained, and photographed under UV light. The intensity of DNA topoisomers was determined using KODAK 1D Image Analysis Software. The percentage of (−) supercoiled DNA was calculated from a comparison of the intensity of the (−) supercoiled band with the total intensity of all DNA topoisomers. The IC50 was calculated as the amount of the drug for which 50% of the DNA was in a (−) supercoiled state.

For another data set, the target named is E. coli DNA Gyrase (Escherichia coli, UniProt P0AES4+P0AES6). Nature of the data set: Inhibition assay against E. coli DNA gyrase (plasmid supercoiling, agarose gel). Type of data set: biochemical. As to conditions: 1 to 50 μM compound. How it is done:
Inhibition Assays Against E. coli DNA Gyrase:
The reaction mixture (30 μl) contained 35 mM Tris-HCl at pH 7.5, 24 mM KCl, 4 mM MgCl2, 2 mM DTT, 1.75 mM ATP, 5 mM spermidine, 0.1 mg/ml BSA, 6.5% glycerol, 250 ng of the relaxed plasmid pBAD-GFPuv, 0.5 units of E. coli DNA Gyrase, and one of the compounds at a final concentration that ranges from 1 to 50 μM. All components were assembled on ice and incubated for 30 minutes at 37° C. After the incubation, the reactions were terminated by extraction with an equal volume of phenol. The topological state of the DNA samples was analyzed with 1% agarose gel electrophoresis in 1×TAE buffer, pH 7.8. Following electrophoresis, the agarose gel was stained with Ethidium Bromide, destained, and photographed under UV light. The intensity of DNA topoisomers was determined using KODAK 1D Image Analysis Software.

The structures appear in SMILES notation. ≈ marks a conversion by molar mass, not a printed value. Like-named read-outs stand apart in the source and are kept apart here.

Sequence of human DNA topoisomerase II (P11388 whole entry): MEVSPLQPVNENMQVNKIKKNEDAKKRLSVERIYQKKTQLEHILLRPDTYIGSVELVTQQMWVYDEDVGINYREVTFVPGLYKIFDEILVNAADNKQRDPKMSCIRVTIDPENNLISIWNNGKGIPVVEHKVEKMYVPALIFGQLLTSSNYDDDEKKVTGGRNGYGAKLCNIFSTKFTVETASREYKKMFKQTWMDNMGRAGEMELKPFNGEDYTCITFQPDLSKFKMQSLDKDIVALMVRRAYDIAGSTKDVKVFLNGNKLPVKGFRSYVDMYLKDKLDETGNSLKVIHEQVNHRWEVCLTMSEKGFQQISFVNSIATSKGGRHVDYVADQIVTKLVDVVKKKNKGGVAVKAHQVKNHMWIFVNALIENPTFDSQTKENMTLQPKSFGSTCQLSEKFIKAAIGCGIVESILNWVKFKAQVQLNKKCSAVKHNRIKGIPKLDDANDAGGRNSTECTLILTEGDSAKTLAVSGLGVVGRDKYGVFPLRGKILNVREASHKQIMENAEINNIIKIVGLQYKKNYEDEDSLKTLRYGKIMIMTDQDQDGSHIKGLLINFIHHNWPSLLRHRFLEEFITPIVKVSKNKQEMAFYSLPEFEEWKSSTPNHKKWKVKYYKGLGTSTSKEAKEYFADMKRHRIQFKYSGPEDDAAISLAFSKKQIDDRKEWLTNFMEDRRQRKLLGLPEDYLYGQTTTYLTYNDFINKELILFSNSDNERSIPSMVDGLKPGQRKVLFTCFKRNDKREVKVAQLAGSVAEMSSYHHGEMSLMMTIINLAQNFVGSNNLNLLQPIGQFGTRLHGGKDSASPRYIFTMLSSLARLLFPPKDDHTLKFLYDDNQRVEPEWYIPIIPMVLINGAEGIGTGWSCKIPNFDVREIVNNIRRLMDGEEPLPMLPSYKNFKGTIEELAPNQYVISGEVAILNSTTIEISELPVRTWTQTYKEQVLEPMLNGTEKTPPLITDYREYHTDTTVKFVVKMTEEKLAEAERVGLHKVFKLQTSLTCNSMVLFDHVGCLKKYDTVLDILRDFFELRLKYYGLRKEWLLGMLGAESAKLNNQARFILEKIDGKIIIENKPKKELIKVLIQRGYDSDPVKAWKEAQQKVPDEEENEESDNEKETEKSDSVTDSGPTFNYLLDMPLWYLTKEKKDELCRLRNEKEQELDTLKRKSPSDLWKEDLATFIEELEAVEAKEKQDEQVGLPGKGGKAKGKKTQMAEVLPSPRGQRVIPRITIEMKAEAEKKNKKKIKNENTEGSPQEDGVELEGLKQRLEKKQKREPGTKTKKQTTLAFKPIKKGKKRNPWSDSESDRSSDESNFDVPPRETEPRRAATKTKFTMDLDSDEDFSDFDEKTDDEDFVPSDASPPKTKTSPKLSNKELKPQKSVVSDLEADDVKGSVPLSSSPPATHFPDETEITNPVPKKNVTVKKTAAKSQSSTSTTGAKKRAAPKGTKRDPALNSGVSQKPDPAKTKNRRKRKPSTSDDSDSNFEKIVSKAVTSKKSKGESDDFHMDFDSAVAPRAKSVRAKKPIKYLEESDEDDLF
Sequence of E. coli DNA Gyrase (P0AES4 whole entry, one chain of several): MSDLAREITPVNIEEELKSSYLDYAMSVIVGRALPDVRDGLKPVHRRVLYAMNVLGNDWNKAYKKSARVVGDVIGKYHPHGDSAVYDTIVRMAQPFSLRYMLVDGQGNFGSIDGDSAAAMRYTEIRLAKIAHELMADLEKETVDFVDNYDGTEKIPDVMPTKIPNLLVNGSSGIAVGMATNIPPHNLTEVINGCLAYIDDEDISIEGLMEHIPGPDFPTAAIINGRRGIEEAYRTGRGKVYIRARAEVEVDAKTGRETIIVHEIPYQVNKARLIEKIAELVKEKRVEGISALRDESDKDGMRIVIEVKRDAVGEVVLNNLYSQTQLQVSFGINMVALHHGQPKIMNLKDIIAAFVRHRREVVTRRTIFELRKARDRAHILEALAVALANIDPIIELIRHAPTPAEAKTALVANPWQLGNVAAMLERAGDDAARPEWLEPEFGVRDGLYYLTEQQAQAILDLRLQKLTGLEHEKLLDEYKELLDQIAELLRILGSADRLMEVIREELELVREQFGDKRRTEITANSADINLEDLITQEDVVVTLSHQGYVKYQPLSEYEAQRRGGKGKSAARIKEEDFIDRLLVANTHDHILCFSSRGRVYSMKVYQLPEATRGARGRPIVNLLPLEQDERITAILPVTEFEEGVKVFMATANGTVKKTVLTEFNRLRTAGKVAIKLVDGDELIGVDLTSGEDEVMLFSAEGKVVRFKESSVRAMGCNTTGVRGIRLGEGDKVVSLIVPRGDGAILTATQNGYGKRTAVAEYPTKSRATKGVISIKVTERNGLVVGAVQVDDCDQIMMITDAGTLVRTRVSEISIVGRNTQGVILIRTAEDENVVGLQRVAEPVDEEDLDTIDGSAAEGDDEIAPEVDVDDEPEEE

In turn, `C#CCCCCOc1ccc(-c2nc3ccc(-c4nc5ccc(N6CCN(C)CC6)cc5[nH]4)cc3[nH]2)cc1` [DPA 152, 2′-(4-(hex-5-ynyloxy)phenyl)-6-(4-methylpiperazin-1-yl)-1H,3′H-2,5′-bibenzo[d]imidazole] displayed a melting point of 210 to 220 °C. Besides, the minimal inhibitory concentration (MIC) in the data set with Escherichia coli K12 fell in the range of 8 to 16 µg/mL (≈ 15.9 to 31.7 µM). Besides, the minimum inhibitory concentration (MIC) in [1] was 2 to 4 µg/mL (≈ 3.96 to 7.93 µM). Moreover, in [2], the minimum inhibitory concentration (MIC) came out at 4 µg/mL (≈ 7.93 µM) and the “activity against E. faecalis 29212 (in words)” value (from here on “activity”) is recorded as “markedly improved activity”. In addition, in data set [3], the MIC fell in the range of 2 to 4 µg/mL (≈ 3.96 to 7.93 µM). For the same compound, the MIC in data set [4] lay within 8 to 16 µg/mL (≈ 15.9 to 31.7 µM). Besides, the “cytotoxicity relative to Hoechst 33242” value in the data set with DU 145 cell line (DU-145, 48 h) is on record as “nearly twice as toxic as Hoechst 33242”. Further, the IC50 with DU 145 cell line (Homo sapiens, DU-145) stood at 2.12 ± 0.46 µM. Also, the MIC in [5] stood at 16 µg/mL (≈ 31.7 µM).
Take `C#CCCCCCCCCCOc1ccc(-c2nc3ccc(-c4nc5ccc(N6CCN(C)CC6)cc5[nH]4)cc3[nH]2)cc1` [DPA 153, 6-(4-methylpiperazin-1-yl)-2′-(4-(undec-10-ynyloxy)phenyl)-1H,3′H-2,5′-bibenzo[d]imidazole]: the melting point was in the range of 170 to 175 °C. Besides, in the data set with Escherichia coli K12, the minimal inhibitory concentration (MIC) fell in the range of 8 to 16 µg/mL (≈ 13.9 to 27.8 µM). Further, the minimal inhibitory concentration (MIC) in data set [2] fell in the range of 16 to 32 µg/mL (≈ 27.8 to 55.7 µM). The concentration for half-maximal inhibition (IC50) in the data set with DU 145 cell line (Homo sapiens, DU-145) is above 10 µM.
Consider `CCOc1ccc(-c2nc3ccc(-c4nc5ccc(N6CCN(C)CC6)cc5[nH]4)cc3[nH]2)cc1` [Hoechst 33342, reference compound], for which the “MIC S5 = E. coli K 12” value against Escherichia coli K12 turned out to be 8 µg/mL (≈ 17.7 µM). Also, in data set [1], the “MIC S1 = S. aureus 29213” value lay within 2 to 4 µg/mL. Moreover, in data set [2], the “activity” value is reported as “not good inhibitors” and the “MIC S6 = E. faecalis 29212” value fell in the range of 16 to 32 µg/mL. For the same compound, the “MIC S2 = S. aureus 33591” value in data set [3] was 2 to 4 µg/mL. For the same compound, in data set [4], the “MIC S3 = E. coli 25922” value was in the range of 8 to 16 µg/mL. The half-maximal inhibitory concentration (IC50) with DU 145 cell line was 4.25 µM. Also, in data set [5], the “MIC S4 = P. aeruginosa 27853” value is 16 µg/mL (≈ 35.4 µM).
In the case of `C#CCOc1ccc(-c2nc3ccc(-c4nc5ccc(N6CCN(C)CC6)cc5[nH]4)cc3[nH]2)cc1` [DPA 151, 6-(4-methylpiperazin-1-yl)-2′-(4-(prop-2-ynyloxy)phenyl)-1H,3′H-2,5′-bibenzo[d]imidazole], the MIC with Escherichia coli K12 is 8 µg/mL (≈ 17.3 µM); in [1], 2 to 4 µg/mL (≈ 4.32 to 8.65 µM); in data set [2], 16 to 32 µg/mL (≈ 34.6 to 69.2 µM); in [3], 2 to 4 µg/mL (≈ 4.32 to 8.65 µM); in data set [4], 8 µg/mL (≈ 17.3 µM). Besides, the “inhibition of human DNA topoisomerase II activities at 50 μM” value in [6] is recorded as “partially inhibit”. Also, the IC50 in [6] came out at 51.6 ± 2.5 µM; in the data set with DU 145 cell line (Homo sapiens, DU-145), 3.24 ± 0.71 µM.
Compound `C#CCOCCCCOc1ccc(-c2nc3ccc(-c4nc5ccc(N6CCN(C)CC6)cc5[nH]4)cc3[nH]2)cc1` [DPA 154, 6-(4-methylpiperazin-1-yl)-2′-(4-(4-(prop-2-ynyloxy)butoxy)phenyl)-1H,3′H-2,5′-bibenzo[d]imidazole] registered a melting point of 150 to 155 °C. For the same compound, the minimum inhibitory concentration (MIC) in the data set with Escherichia coli K12 was 8 to 16 µg/mL (≈ 15 to 29.9 µM). Besides, the minimum inhibitory concentration (MIC) in data set [1] was 2 to 4 µg/mL (≈ 3.74 to 7.48 µM). The “activity” value in data set [2] is on record as “markedly improved activity”. The minimum inhibitory concentration (MIC) in [3] is 2 to 4 µg/mL (≈ 3.74 to 7.48 µM). In addition, the MIC in [4] fell in the range of 8 to 16 µg/mL (≈ 15 to 29.9 µM). The IC50 in the data set on DU 145 cell line (Homo sapiens, DU-145) is 2.79 ± 0.13 µM. Besides, in data set [5], the MIC worked out at 16 µg/mL (≈ 29.9 µM).
In the case of `CN1CCN(c2ccc3[nH]c(-c4ccc5[nH]c(-c6ccc(O)cc6)nc5c4)nc3c2)CC1` [Hoechst 33258, reference compound], the “MIC S5 = E. coli K 12” value against Escherichia coli K12 came to 16 µg/mL (≈ 37.7 µM). The “MIC S1 = S. aureus 29213” value in data set [1] is ≥32^ ^ μg/ml. Further, in [2], the “activity” value is reported as “not good inhibitors” and the “MIC S6 = E. faecalis 29212” value was in the range of 16 to 32 µg/mL. Further, the “MIC S2 = S. aureus 33591” value in [3] lay in the range of 16 to 32 µg/mL. In data set [6], the “inhibition of human DNA topoisomerase II activities at 50 μM” value is recorded as “completely inhibit” and the IC50 came to 28.9 ± 4.45 µM. Also, in data set [4], the “MIC S3 = E. coli 25922” value is 16 µg/mL (≈ 37.7 µM). Moreover, the “MIC S4 = P. aeruginosa 27853” value in data set [5] is 16 µg/mL (≈ 37.7 µM). Besides, at E. coli DNA Gyrase, the “inhibition of DNA gyrase's activities” value is “did not inhibit”.
